Data from US20010034362A1, “Pyrrolidine derivatives for vision and memory disorders” (Guilford Pharmaceuticals Inc., priority 1998, published 2001).
Read-outs that look alike come from different tables or passages of the source.

How the values were obtained:
[1] = target: FKBP12 (Homo sapiens, UniProt P62942); experiment: Inhibition of peptidyl-prolyl isomerase (rotamase) activity of FKBP, chymotrypsin-coupled assay, apparent Ki; assay type: biochemical
Source text: The inhibition of the prolyl peptidyl cis-trans isomerase activity of FKBP may be measured as an indicator of this affinity. Inhibition of the peptidyl-prolyl isomerase (rotamase) activity of the compounds used in the inventive methods and pharmaceutical compositions can be evaluated by known methods described in the literature (Harding et al., Nature, 1989, 341:758-760; Holt et al. J. Am. Chem. Soc., 115:9923-9938). […] The cis-trans isomerization of an alanine-proline bond in a model substrate, N-succinyl-[…]-nitroanilide, is monitored spectrophotometrically in a chymotrypsin-coupled assay, which releases para-nitroanilide from the trans form of the substrate. […] The reaction is initiated by the addition of […] of substrate (succinyl-[…]-nitroanilide, 5 mg/ml in 2.35 mM LiCl in trifluoroethanol).

[2] = tested on: retinal ganglion cell axons; experiment: Protection of retinal ganglion cell axons from degeneration following optic nerve transection (Table V); assay type: in vivo; settings: ± SEM
Source text: Efficacy of representative compounds from different immunophilin ligand series in protecing retinal gangiou cell axons from degeneration following optic nerve transection is set forth in Table V.

[3] = Clearance (Table V comments); assay type: in vitro ADME
[4] = apparent Ki, rotamase inhibition, Table A, read-out: K1
[5] = Table V comments, read-out: Ki rotamase

FKBP12, sequence (P62942 whole entry, species assumed): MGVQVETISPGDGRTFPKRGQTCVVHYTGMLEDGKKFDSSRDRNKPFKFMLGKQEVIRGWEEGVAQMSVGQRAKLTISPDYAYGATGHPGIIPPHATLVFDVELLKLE

SMILES | Ki [1, 4] [nM] | Clearance [3] [µL/min] | further results
CCC(C)(C)C(=O)C(=O)N1CCCC1C(=O)OCC=Cc1cc(OC)c(OC)c(OC)c1 [Compound 4, 3-(3,4,5-trimethoxyphenyl)-1-prop-2-(E)-enyl (2S)-1-(3,3-dimethyl-1,2-dioxopentyl)-2-pyrrolidine carboxylate] | 65 | – | –
CCC(C)(C)C(=O)C(=O)N1CCCC1C(=O)OCC=CC1CCCCC1 [Compound 8, 3-cyclohexyl-1-prop-2-(E) -enyl (2S) -1-(3,3-dimethyl-1,2-doxopentyl)-2-pyrrolidinecarboxylate] | 600 | – | –
O=C(SCCCc1ccccc1)[C@@H]1CCCN1S(=O)(=O)Cc1ccccc1 [C] | – | 31.1 | RT97 + RGC axon density 14 days after ON transection (% ON axons rescued) [2]: 60.4% ± 3.1% SEM; Ki [1, 5]: 107 nM
CCC(C)(C)C(=O)C(=O)N1CCC[C@H]1C(=O)OCCCc1ccccc1 [Compound 1, 3-Phenyl-1-propyl (2S)-1-(3,3-dimethyl-1,2-dioxopentyl)-2-pyrrolidinecarboxylate] | 42 | – | –
CCC(C)(C)C(=O)C(=O)N1CCS[C@@H]1C(=O)OCCCc1cccnc1 [F] | – | – | Ki [1, 5]: 272 nM
CCC(C)(C)C(=O)C(=O)N1CCCC1C(=O)OC(CCc1ccccc1)CCc1ccccc1 (stereo not drawn) [E] | – | 41.8 | RT97 + RGC axon density 14 days after ON transection (% ON axons rescued) [2]: 56.6% ± 9.4% SEM
O=C(SCCCc1ccccc1)[C@@H]1CCCN1C(=O)NC12CC3CC(CC(C3)C1)C2 [B] | – | – | Ki [1, 5]: 149 nM
O=C(C(=O)N1CCCC1C(=O)OCCCc1ccccc1)c1ccccc1 [Compound 13, 3-phenyl-1-propyl (2S)-1-(1,2-dioxo-2-phenyl)ethyl-2-pyrrolidinecarboxylate] | 1970 | – | –
O=C(C(=O)N1CCCC1C(=O)OCCCc1ccccc1)c1cccs1 [Compound 11, 3-phenyl-1-propyl (2S)-1-(1,2-dioxo-2-[2-thienyl])ethyl-2-pyrrolidinecarboxylate] | 92 | – | –
CCC(C)(C)C(=O)C(=O)N1CCC[C@H]1C(=O)O [L] | – | 5.2 | RT97 + RGC axon density 14 days after ON transection (% ON axons rescued) [2]: 7.8% ± 3.0% SEM
CCC(C)(C)C(=O)C(=O)N1CCCC1C(=O)OCC=Cc1cc(OC)ccc1OC [Compound 15, 3-(2,5-dimethoxyphenyl)-1-prop-2-(E)-enyl (2S)-1-(3,3-dimethyl-1,2-dioxopentyl)-2-pyrrolidine-carboxylate] | 450 | – | –
O=C(OCCCc1ccccc1)[C@@H]1CCCN1S(=O)(=O)Cc1ccccc1 [D] | – | – | RT97 + RGC axon density 14 days after ON transection (% ON axons rescued) [2]: 58.4% ± 6.4% SEM
O=C(C(=O)N1CCCC1C(=O)OCCC(c1ccccc1)c1ccccc1)c1cccs1 [Compound 30, 3,3-Diphenyl-1-propyl (2S) -1-(2-thienyl) glyoxyl-2-pyrrolidinecarboxylate] | 150 | – | –
CCC(C)(C)C(=O)C(=O)N1CCC[C@H]1C(=O)SCCC(c1ccccc1)c1ccccc1 [M] | – | 12.5 | RT97 + RGC axon density 14 days after ON transection (% ON axons rescued) [2]: −6.3% + 3.9 SEM
O=C(C(=O)N1CCCC1C(=O)OCCC(c1ccccc1)c1ccccc1)C1CCCCC1 [Compound 29, 3,3-Diphenyl-1-propyl (2S)-1-cyclohexyl glyoxyl-2-pyrrolidinecarboxylate] | 20 | – | –
CCC(C)(C)C(=O)C(=O)N1CCCC[C@H]1C(=O)SCCC(c1ccccc1)c1ccccc1 [K] | – | 5.2 | RT97 + RGC axon density 14 days after ON transection (% ON axons rescued) [2]: 7.8% ± 3.0% SEM
CCC(C)(C)C(=O)C(=O)N1CCCC1C(=O)OCC=Cc1ccc2c(c1)OCO2 [Compound 6, 3-(4,5-methylenedioxyphenyl)-1-prop-2-(E)-enyl (2S)-1-(3,3-dimethyl-1,2-dioxopentyl)-2-pyrrolidinecarboxylate] | 160 | – | –
O=C(C(=O)N1CCCC1C(=O)OCCCc1ccccc1)c1nccs1 [Compound 12, 3-phenyl-1-propyl (2S)-1-(1,2-dioxo-2-[2-thiazolyl])ethyl-2-pyrrolidinecarboxylate] | 100 | – | –
CN(C)C(=O)N1CCC[C@H]1C(=O)SCCCc1ccccc1 [N] | – | 21.9 | Ki [1, 5]: 722 nM
CCC(C)(C)C(=O)C(=O)N1CCCC1C(=O)OCC=Cc1ccccc1 [Compound 2, 3-phenyl-1-prop-2-(E)-enyl (2S)-1-(3,3-dimethyl-1,2-dioxopentyl)-2-pyrrolidinecarboxylate] | 125 | – | –
O=C(OCCCc1cccnc1)[C@@H]1CCCN1C(=S)NC1CCCCC1 [I] | – | 8.0 | Ki [1, 5]: 131 nM
CCC(C)(C)C(=O)C(=O)N1CCC[C@H]1C(=O)CCCCc1cccnc1 [J] | – | 1.5 | –
